In US20100240746A1, “STEREOISOMERS OF TRICYCLODECAN-9-YL-XANTHOGENATE” (LUMAVITA AG, priority 2007, published 2010):
Values after ≈ are worked out from the molar mass of the structure shown.

Tests used:
[1] = test system: bovine papilloma virus type I (BPV-1)-transformed HEF (HEF-BPV); experiment: Inhibition of bovine papilloma virus, BPV-infected hamster embryo fibroblasts (HEF) cell proliferation assay; type: cell-based; conditions: HEF-BPV, 72 hr, 37° C., pH 6.8
Procedure: Briefly, hamster embryo fibroblasts and bovine papilloma virus type I (BPV-1)-transformed HEF (HEF-BPV) were grown in Eagle's basal medium. […] and HEF cells were seeded in 96-well plates at a density of 0.5×10^6 cells per plate in DMEM cell culture medium containing 10% fetal calf serum at pH 6.8. The plates were then incubated in the presence of 5% CO2 in 100% humidity at 37° C. After 6 hr, the cell culture medium in the plates was exchanged with fresh DMEM cell culture medium containing test compounds at a series of concentrations. The plates were incubated at 37° C. for additional 72 hr. Cells in the plates were then washed with PBS, fixed with 3% formaldehyde solution containing 0.9% NaCl for 1 min, washed by water for 10 sec, and dried overnight. For detection, the plates were stained with crystal violet solution for 5 min at room temperature, washed 5 times with water, and dried at room temperature overnight. After adding ethanol/acetic acid (99:1, v/v, […]) to each well, the plates were measured at 595 nm using an ELISA reader.

[2] = test system: HPV-31-infected CIN612 9E keratinocytes; experiment: Short-term study, effect on cell proliferation of HPV-31-infected keratinocytes; type: cell-based, human papilloma virus; conditions: Human papillomavirus, Keratinocyte; 72 hrs, 37° C.; 50% of uninhibited growth
Procedure: (§1) The inhibitory activities of optically active (−)-enantiomer 1A against human papilloma virus were evaluated using HPV-31-infected CIN612 9E keratinocytes (Meyers et al., Science 1992, 257, 971-973).
Effect on cell proliferation. HPV-31 infected cells were seeded in 96-well plates containing 1×10^6 mitomycin C treated 3T3 cells (1×10^4 cells/well), at a density of 0.5×10^6 cells per plate (0.5×10^4 cells/well) in E medium. After the plates were incubated in a CO2 incubator under 5% CO2 at 37° C. in 100% humidity for six hrs, the cell culture medium was removed and fresh E medium containing 0.85 g/L NaHCO3 and a test compound at a series of concentrations (0, 0.5, 1, 2, 4, 8, 16, 32, 64, and 128 μg/mL), or positive control (interferon γ at 200 IU/mL) was added. […] After the plates were dried on blotting paper upside down overnight, 0.1 mL of ethanol/acetic acid (99:1) was added to each well and optical density at 595 nm was determined in an ELISA reader.
Dose response curves were established by plotting growth against concentrations of the test compound or control. ICso values were determined from the dose response curves from crossing points of the dose response curves with a line parallel to the x-axis corresponding to 50% of uninhibited growth.

[3] = test system: Herpes simplex virus type-2 (HSV-2); experiment: Inhibition of HSV-2 (plaque assay; Calu-6 infected, RITA cells for plaques); type: cell-based
Procedure: Calu-6 cells and RITA cells were grown in DMEM cell culture medium containing 10% fetal calf serum in CO2 incubator under 5% CO2 at 37° C. with 100% humidity.
For HSV-2 inhibition, Calu-6 cells were seeded in 96 well plates at a density of 3×10^6 cells per plate in the DMEM cell culture medium. The plates were incubated at 37° C. in the presence of 5% CO2 for 24 hr. The DMEM cell culture medium in the plates was removed and the cells were infected with Herpes simplex virus type-2 at 50 plaque forming units per well. After incubation at 37° C. for 60 min, test compounds in DMEM cell culture medium at a series of concentrations were added. The plates were incubated at 37° C. in the presence of 5% CO2 for 48 hr. The plates were frozen at −20° C. prior to further analysis. After thawing at room temperature, supernatants containing infectious virus particles were prepared by centrifuging the supernatant from each well at 18,000 g at 4° C. for 5 min. The supernatant was further diluted before assay.
RITA cells were seeded in 24 well Linbra plates at a density of 4×10^6 cells per plate in 2 mL of DMEM cell culture medium. The plates were incubated at 37° C. in the presence of 5% CO2 for 24 hr. After the removal of the cell culture medium, 0.1 mL of the diluted supernatants was added and the plates were incubated at 37 C for 1 hr. DMEM cell medium containing 10% fetal calf serum and 0.5% methyl cellulose was added and the plates were incubated at 37 for 48 hr. The plates were then washed with PBS, fixed with 3% formaldehyde solution containing 0.9% NaCl for 1 min, washed by water for 10 sec, and dried overnight. For detection, the plates were then stained with crystal violet solution for 5 min at room temperature, washed 5 times with water, and dried at room temperature overnight. The number of plaques was determined macroscopically. The number of plaques per well was then multiplied with the dilution factor. Dose response curves were obtained by plotting the number of plaques/0.1 mL against compound concentration. The therapeutic index was also calculated for each compound by dividing LD50 with IC50.

[4] = test system: HPV-31 specific DNA in HPV-31-infected CIN612 9E keratinocytes; experiment: Short-term study, inhibition of HPV-31 specific DNA (Southern Blot); type: cell-based, human papilloma virus; conditions: Human papillomavirus, Keratinocyte; at 32 μg/mL, 72 hrs
Procedure: as §1
Effect on HPV-31 specific DNA and RNA. HPV-31 infected cells (3×10^6) were dispensed into 14.5 cm dishes containing fresh E culture medium and 1×10^6 mitomycin C-treated J2 3T3 fibroblast feeders. After 6 hrs, fresh medium containing 0.85 g/L NaHCO3 and a test compound at a series of concentrations (0, 0.5, 1, 2, 4, 8, 16, and 32 μg/mL) were added. All samples were tested in duplicates at each concentration. After incubation at 37° C. for 72 hrs, the feeder cells were removed with 4 mM EDTA, and DNA and RNA was then isolated. The isolated DNA and RNA were analyzed in Southern and Northern Blot gels for HPV-31 specific sequences. Human A431 epithelial cancer cells were used as HPV-uninfected negative control. X-ray films were scanned and optical densities of HPV-31 specific DNA and major mRNA species were integrated.
Dose response curves were established by plotting integrated values against the concentrations of the test compound.

S=C(S)OC1CC2CC1C1CCCC21 (single isomer, unassigned; (-)) [(−)-Enantiomer 1A, (−)-O-exo/C-exo-tricyclo[5.2.1.0^2,6]-dec-9-yl-xanthic acid]
IC50 [1]: 11.07 ± 0.18 µg/mL (≈ 48.5 µM)
EC50 [2]: 16 µg/mL (≈ 70.1 µM)
IC50 ([3]; Calu-6 cells, 48 hr, 50 plaque forming units per well): 9.08 ± 3.40 µg/mL (≈ 39.8 µM)
Therapeutic Index ([3]; LD50 (Calu-6) divided by IC50 (HSV-2), 2880 min): 10.4
inhibition at 32 µg/mL [4]: 37.5%
